According to ChEMBL document CHEMBL4813957, “Antitubercular properties of thiazolidin-4-ones - A review” (Eur J Med Chem, 2021):
Converted amounts (≈) assume the structure as drawn.

Each molecule was assayed on Mycobacterium tuberculosis (assay: Antimycobacterial activity against Mycobacterium tuberculosis H37Ra 7131 incubated for 21 days by broth dilution method). Conditions: H37Ra 7131, 504 h, time 21 day.
Format: functional

Row | Structure (SMILES) | MIC
1 | N=C1SC(Br)(C(Br)c2ccccc2)C(=O)N1NC(=O)c1ccncc1 (stereo unspecified) | 13 µg/mL (≈ 26.8 µM)
2 | CC/N=C1\SC(=O)C(=O)N1NC(=O)c1ccncc1 | 19.5 µg/mL (≈ 70.1 µM)
3 | Cc1ccc(/N=C2\SC(=O)C(=O)N2NC(=O)c2ccncc2)cc1 | 78 µg/mL (≈ 229 µM)
4 | Cc1cccc(/N=C2\SC(=O)C(=O)N2NC(=O)c2ccncc2)c1 | 19.5 µg/mL (≈ 57.3 µM)
5 | N=C1SC(Br)(C(Br)c2ccc([N+](=O)[O-])cc2)C(=O)N1NC(=O)c1ccncc1 (stereo unspecified) | 11 µg/mL (≈ 20.8 µM)
6 | C=CC/N=C1\SC(=O)C(=O)N1NC(=O)c1ccncc1 | 19.5 µg/mL (≈ 67.2 µM)
7 | Cc1ccc(/C=C2\SC(=N)N(NC(=O)c3ccncc3)C2=O)cc1 | 13 µg/mL (≈ 38.4 µM)

Each molecule was assayed on Mycobacterium tuberculosis (assay: Antimycobacterial activity against Mycobacterium tuberculosis H37Rv ATCC27294 measured after 28 days by two-fold serial dilution method). Conditions: H37Rv ATCC 27294, 672 h, time 28 day.
Format: functional

Row | Structure (SMILES) | MIC
8 | N=C1S/C(=C\c2cc([N+](=O)[O-])cs2)C(=O)N1c1nc2ccc([N+](=O)[O-])cc2s1 | 6.52 µM (≈ 2.83 µg/mL)
9 | COc1ccc(/C=C2\SC(=N)N(c3ncc([N+](=O)[O-])s3)C2=O)cc1 | 3.78 µM (≈ 1.37 µg/mL)
10 | COc1cc(/C=C2\SC(=N)N(c3cccc(C(F)(F)F)c3)C2=O)cc(OC)c1OC | 7.11 µM (≈ 3.12 µg/mL)

These molecules were tested on Mycobacterium tuberculosis (assay: Antimycobacterial activity against Mycobacterium tuberculosis H37Rv by Lowenstein-Jensen method relative to control). Conditions: not given.
Format: functional

Row | Structure (SMILES) | MIC
11 | O=C(NCCCNc1ncc([N+](=O)[O-])s1)N1C(=O)/C(=C/c2ccccc2Br)SC1c1ccccc1Br (stereo unspecified) | 6.25 µg/mL (≈ 9.57 µM)
12 | O=C(NCCCNc1ncc([N+](=O)[O-])s1)N1C(=O)/C(=C/c2ccc(Br)cc2)SC1c1ccc(Br)cc1 (stereo unspecified) | 2.75 µg/mL (≈ 4.21 µM)
13 | O=C(NCCCNc1ncc([N+](=O)[O-])s1)N1C(=O)/C(=C/c2ccccc2)SC1c1ccccc1 (stereo unspecified) | 12.5 µg/mL (≈ 25.2 µM)
14 | O=C(NCCCNc1ncc([N+](=O)[O-])s1)N1C(=O)/C(=C/c2cccc([N+](=O)[O-])c2)SC1c1cccc([N+](=O)[O-])c1 (stereo unspecified) | 2.5 µg/mL (≈ 4.27 µM)
15 | O=C(NCCCNc1ncc([N+](=O)[O-])s1)N1C(=O)/C(=C/c2ccc([N+](=O)[O-])cc2)SC1c1ccc([N+](=O)[O-])cc1 (stereo unspecified) | 2.5 µg/mL (≈ 4.27 µM)
16 | O=C(NCCCNc1ncc([N+](=O)[O-])s1)N1C(=O)/C(=C/c2ccc(Cl)cc2)SC1c1ccc(Cl)cc1 (stereo unspecified) | 2.5 µg/mL (≈ 4.43 µM)
17 | O=C(NCCCNc1ncc([N+](=O)[O-])s1)N1C(=O)/C(=C/c2ccccc2Cl)SC1c1ccccc1Cl (stereo unspecified) | 2.5 µg/mL (≈ 4.43 µM)
18 | O=C(NCCCNc1ncc([N+](=O)[O-])s1)N1C(=O)/C(=C/c2cccc(Cl)c2)SC1c1cccc(Cl)c1 (stereo unspecified) | 2.75 µg/mL (≈ 4.87 µM)
19 | O=C(NCCCNc1ncc([N+](=O)[O-])s1)N1C(=O)/C(=C/c2cccc(Br)c2)SC1c1cccc(Br)c1 (stereo unspecified) | 2.75 µg/mL (≈ 4.21 µM)
20 | O=C(NCCCNc1ncc([N+](=O)[O-])s1)N1C(=O)/C(=C/c2ccccc2[N+](=O)[O-])SC1c1ccccc1[N+](=O)[O-] (stereo unspecified) | 2.75 µg/mL (≈ 4.7 µM)

Each molecule was assayed on Mycobacterium tuberculosis (assay: Antimycobacterial activity against Mycobacterium tuberculosis H37Rv ATCC […] by microplate alamar blue assay). Conditions: 168 h, time 7 day.
Format: functional

Row | Structure (SMILES) | MIC
21 | COc1ccc(C2SCC(=O)N2C2=NN3C(=CSC3c3ccc(N(C)C)cc3)S2)cc1 (stereo unspecified) | 3.12 µg/mL (≈ 6.63 µM)
22 | CN(C)c1ccc(C2SC=C3SC(N4C(=O)CSC4c4ccccc4)=NN32)cc1 (stereo unspecified) | 6.25 µg/mL (≈ 14.2 µM)
23 | COc1ccccc1C1SCC(=O)N1C1=NN2C(=CSC2c2ccc(N(C)C)cc2)S1 (stereo unspecified) | 3.12 µg/mL (≈ 6.63 µM)
24 | Cc1ccc(C2SC=C3SC(N4C(=O)CSC4c4ccc(C)cc4)=NN32)cc1 (stereo unspecified) | 1.6 µg/mL (≈ 3.76 µM)
25 | O=C1CSC(c2ccc(Cl)cc2)N1C1=NN2C(=CSC2c2ccccc2)S1 (stereo unspecified) | 3.12 µg/mL (≈ 7.22 µM)
26 | CN[C@@H]1[C@H](O[C@H]2[C@H](O[C@H]3[C@H](O)[C@@H](O)[C@H](N=C(N)N)[C@@H](O)[C@@H]3N=C(N)N)O[C@@H](C)[C@]2(O)C=O)O[C@@H](CO)[C@H](O)[C@H]1O [STREPTOMYCIN] | 6.25 µg/mL (≈ 10.7 µM)
27 | O=C1CSC(c2ccccc2O)N1C1=NN2C(=CSC2c2ccc(O)cc2)S1 (stereo unspecified) | 3.12 µg/mL (≈ 7.26 µM)
28 | O=C1CSC(c2ccc(O)cc2)N1C1=NN2C(=CSC2c2ccc(O)cc2)S1 (stereo unspecified) | 1.6 µg/mL (≈ 3.72 µM)
29 | O=C1CSC(c2ccccc2)N1C1=NN2C(=CSC2c2ccc(O)cc2)S1 (stereo unspecified) | 6.25 µg/mL (≈ 15.1 µM)
30 | Cc1ccc(C2SC=C3SC(N4C(=O)CSC4c4ccccc4)=NN32)cc1 (stereo unspecified) | 625 µg/mL (≈ 1520 µM)
31 | Cc1ccc(C2SC=C3SC(N4C(=O)CSC4c4ccccc4C)=NN32)cc1 (stereo unspecified) | 3.12 µg/mL (≈ 7.33 µM)
32 | O=C1CSC(c2ccccc2)N1C1=NN2C(=CSC2c2ccccc2)S1 (stereo unspecified) | 6.25 µg/mL (≈ 15.7 µM)
33 | NC(=O)c1cnccn1 [PYRAZINAMIDE] | 3.12 µg/mL (≈ 25.3 µM)
34 | O=C1CSC(c2ccccc2Cl)N1C1=NN2C(=CSC2c2ccccc2)S1 (stereo unspecified) | 3.12 µg/mL (≈ 7.22 µM)

The molecules below were run on Mycobacterium tuberculosis (assay: Antimycobacterial activity against Mycobacterium tuberculosis H37Rv by microplate alamar blue assay). Conditions: not given.
Format: functional

Row | Structure (SMILES) | MIC
35 | O=C(O)c1cn(C2CC2)c2cc(N3CCNCC3)c(F)cc2c1=O [CIPROFLOXACIN] | 3.12 µg/mL (≈ 9.42 µM)
36 | O=C(O)c1ccc(N2C(=O)CSC2c2ccc(F)cc2)cc1O (stereo unspecified) | 6.25 µg/mL (≈ 18.7 µM)
37 | Cc1ccc(/C=C2\SC(=S)N(Cc3nc4ccccc4[nH]3)C2=O)cc1 | 6.25 µg/mL (≈ 17.1 µM)
38 | O=C1/C(=C/c2ccccc2)SC(=S)N1Cc1nc2ccccc2[nH]1 | 6.25 µg/mL (≈ 17.8 µM)
39 | O=C1CSC(c2ccc3c(c2)OCO3)N1c1nc(N2CCOCC2)n[nH]1 (stereo unspecified) | ≤ 1 µg/mL
40 | O=C1N/C(=N\c2ccc(S(=O)(=O)Nc3cc(Cl)c(Cl)cc3Cl)cc2)S/C1=C\c1ccc(O)cc1 | 3.12 µg/mL (≈ 5.62 µM)
41 | COc1ccc(N2C(=O)CSC2c2cc(=O)oc3ccc(C)cc23)cc1 (stereo unspecified) | 25 µg/mL (≈ 68 µM)
42 | CN[C@@H]1[C@H](O[C@H]2[C@H](O[C@H]3[C@H](O)[C@@H](O)[C@H](N=C(N)N)[C@@H](O)[C@@H]3N=C(N)N)O[C@@H](C)[C@]2(O)C=O)O[C@@H](CO)[C@H](O)[C@H]1O [STREPTOMYCIN] | 6.25 µg/mL (≈ 10.7 µM)
43 | O=C1/C(=C/c2ccc(F)cc2)SC(=S)N1Cc1nc2ccccc2[nH]1 | 6.25 µg/mL (≈ 16.9 µM)
44 | COc1ccc2oc(=O)cc(C3SCC(=O)N3c3ccc(Cl)cc3)c2c1 (stereo unspecified) | 25 µg/mL (≈ 64.5 µM)
45 | CN1CCN(c2n[nH]c(N3C(=O)CSC3c3ccc4c(c3)OCO4)n2)CC1 (stereo unspecified) | ≤ 1 µg/mL
46 | Cc1ccc(C2SC(C)C(=O)N2c2nc(N3CCN(C)CC3)n[nH]2)cc1 (stereo unspecified) | ≤ 1 µg/mL
47 | Cc1ccc2oc(=O)cc(C3SCC(=O)N3c3ccccc3)c2c1 (stereo unspecified) | 25 µg/mL (≈ 74.1 µM)

These molecules were tested on Mycobacterium tuberculosis (assay: Antimycobacterial activity against Mycobacterium tuberculosis H37Rv incubated for 5 days by microplate alamar blue assay). Conditions: 120 h, time 5 day.
Format: functional

Row | Structure (SMILES) | MIC
48 | O=C(O)c1cn(C2CC2)c2cc(N3CCNCC3)c(F)cc2c1=O [CIPROFLOXACIN] | 3.12 µg/mL (≈ 9.42 µM)
49 | CN[C@@H]1[C@H](O[C@H]2[C@H](O[C@H]3[C@H](O)[C@@H](O)[C@H](N=C(N)N)[C@@H](O)[C@@H]3N=C(N)N)O[C@@H](C)[C@]2(O)C=O)O[C@@H](CO)[C@H](O)[C@H]1O [STREPTOMYCIN] | 6.25 µg/mL (≈ 10.7 µM)
50 | NC(=O)c1cnccn1 [PYRAZINAMIDE] | 3.12 µg/mL (≈ 25.3 µM)

Each molecule was assayed on Mycobacterium tuberculosis (assay: Antimycobacterial activity against Mycobacterium tuberculosis H37Rv incubated for 7 days by microplate alamar blue assay). Conditions: 168 h, time 7 day.
Format: functional

Row | Structure (SMILES) | MIC
51 | O=C(O)c1cn(C2CC2)c2cc(N3CCNCC3)c(F)cc2c1=O [CIPROFLOXACIN] | 3.12 µg/mL (≈ 9.42 µM)
